Structures can show the parent of a compound that is named as a salt.

Assay type in all cases: biochemical
What all share (conditions): HeLa S3 lysate, sfGFP/mCherry ratio, 2 hrs at 30° C.

Experiment [1] relates to KRAS G12D. Kind of experiment: In vitro transcription-translation (IVTT) assay, KRAS G12D reporter. The procedure, abridged: (§1)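 Reporter: mCherry, P2A, then 3×FLAG-target peptide-sfGFP fusion, IRES-initiated; HeLa S3 lysate IVTT; cpd dilutions 30 μM−0.1 μM half-log in 100% DMSO (dilution-plate conc); DNA added last; 2 h, 30° C; PBS quench.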
Experiment [2] has as its system ALK. Kind of experiment: In vitro transcription-translation (IVTT) assay, ALK reporter. The procedure, abridged: as §1
Experiment [3] concerns MYC. Kind of experiment: In vitro transcription-translation (IVTT) assay, MYC reporter. The essentials:
as §1

In general, IC50 refers to the midpoint of a concentration-inhibition curve. Regarding `COc1ccc(C[C@H]2NC[C@H](O)[C@H]2OC(=O)NCCN2CC(O)(CNC(C)=O)C2)cc1` [V187582, (2R,3S,4S)-4-hydroxy-2-[(4-methoxyphenyl)methyl]pyrrolidin-3-yl N-{2-[3-(acetamidomethyl)-3-hydroxyazetidin-1-yl]ethyl}carbamate hydrochloride], the results for the 50% inhibitory concentration (IC50) in experiment [1], in experiment [2] and in experiment [3] were greater than 30 µM, 10 to 20 µM and greater than 30 µM, respectively.
For the molecule `COc1ccc(C[C@H]2NC[C@H](O)[C@H]2OC(=O)NCC[C@@H]2NC(=O)C3(CCNCC3)NC2=O)cc1` [V187327, (2R,3S,4S)-4-hydroxy-2-[(4-methoxyphenyl)methyl]pyrrolidin-3-yl N-{2-[(3S)-2,5-dioxo-1,4,9-triazaspiro[5.5]undecan-3-yl]ethyl}carbamate; trifluoroacetic acid], the IC50 in experiment [1] was greater than 30 µM; in experiment [2], less than 10 µM; in experiment [3], greater than 30 µM.
For the molecule `COc1ccc(C[C@H]2NC[C@H](O)[C@H]2OC(=O)NCCN2C[C@@H](NC(=O)C3CC(F)(F)C3)[C@H](NC(=O)C3CC(F)(F)C3)C2)cc1` [V187554], the IC50 in experiment [1], in experiment [2] and in experiment [3] was greater than 30 µM in each case.
Take `CCN(CC)CCCCNC(=O)O[C@@H]1[C@@H](O)CN[C@@H]1Cc1ccc(OC)cc1` [V187385, (2R,3S,4S)-4-hydroxy-2-[(4-methoxyphenyl)methyl]pyrrolidin-3-yl N-[4-(diethylamino)butyl]carbamate; trifluoroacetic acid]: the IC50 in experiment [1] is 20 to 30 µM; in experiment [2], less than 10 µM; in experiment [3], 10 to 20 µM.
In the same order, the values of `COc1ccc(C[C@H]2NC[C@H](O)[C@H]2OC(=O)Nc2cc(C)[nH]n2)cc1` [V187658, (2R,3S,4S)-4-hydroxy-2-[(4-methoxyphenyl)methyl]pyrrolidin-3-yl N-(5-methyl-1H-pyrazol-3-yl)carbamate; trifluoroacetic acid] are greater than 30 µM, greater than 30 µM and greater than 30 µM.
In the same order, the values of `COc1ccc(C[C@H]2NC[C@H](O)[C@H]2OC(=O)NC2CNC2)cc1` [V187679, (2R,3S,4S)-4-hydroxy-2-(4-methoxybenzyl)pyrrolidin-3-yl azetidin-3-ylcarbamate] are greater than 30 µM, 10 to 20 µM and greater than 30 µM.
The like results for `COc1ccc(C[C@H]2NC[C@H](O)[C@H]2OC(=O)NC[C@@H]2CCCO2)cc1` [V187520, (2R,3S,4S)-4-hydroxy-2-[(4-methoxyphenyl)methyl]pyrrolidin-3-yl N-[(2S)-oxolan-2-ylmethyl]carbamate; trifluoroacetic acid] were, in that order, greater than 30 µM, less than 10 µM and 20 to 30 µM.
With `COc1ccc(C[C@H]2NC[C@H](O)[C@H]2OC(=O)NCCN2CCN(Cc3ccccc3)CC2)cc1` [V187465, (2R,3S,4S)-4-hydroxy-2-[(4-methoxyphenyl)methyl]pyrrolidin-3-yl N-[2-(4-benzylpiperazin-1-yl)ethyl]carbamate], the IC50 was 10 to 20 µM in experiment [1], less than 10 µM in experiment [2] and less than 10 µM in experiment [3].
Consider `CCCCN(CCCC)CCCNC(=O)O[C@@H]1[C@@H](O)CN[C@@H]1Cc1ccc(OC)cc1` [V187386, (2R,3S,4S)-4-hydroxy-2-[(4-methoxyphenyl)methyl]pyrrolidin-3-yl N-[3-(dibutylamino)propyl]carbamate], for which the IC50 in experiment [1], in experiment [2] and in experiment [3] was greater than 30 µM each time.
As to `COc1ccc(C[C@H]2NC[C@H](O)[C@H]2OC(=O)NCCN2CCC3(CNC3)C2)cc1` [V187644, (2R,3S,4S)-4-hydroxy-2-[(4-methoxyphenyl)methyl]pyrrolidin-3-yl N-(2-{2,6-diazaspiro[3.4]octan-6-yl}ethyl)carbamate; trifluoroacetic acid], the IC50 in experiment [1] was greater than 30 µM; in experiment [2], 20 to 30 µM; in experiment [3], greater than 30 µM.
Consider `COc1ccc(C[C@H]2NC[C@H](O)[C@H]2OC(=O)NCCN2C(=O)CNC2=O)cc1` [V187659, (2R,3S,4S)-4-hydroxy-2-[(4-methoxyphenyl)methyl]pyrrolidin-3-yl N-[2-(2,5-dioxoimidazolidin-1-yl)ethyl]carbamate; trifluoroacetic acid], for which the IC50 in experiment [1] was greater than 30 µM; in experiment [2], less than 10 µM; in experiment [3], 20 to 30 µM.
Turning to `COc1ccc(C[C@H]2NC[C@H](O)[C@H]2OC(=O)NNC(=O)Cc2ccccc2)cc1` [V187741, N′-({[(2R,3S,4S)-4-hydroxy-2-[(4-methoxyphenyl)methyl]pyrrolidin-3-yl]oxy}carbonyl)-2-phenylacetohydrazide; trifluoroacetic acid], the IC50 was 10 to 20 µM in experiment [1], less than 10 µM in experiment [2] and less than 10 µM in experiment [3].
On to `COc1ccc(C[C@H]2NC[C@H](O)[C@H]2OC(=O)NCCOCCn2ccnc2)cc1` [V187628, (2R,3S,4S)-4-hydroxy-2-[(4-methoxyphenyl)methyl]pyrrolidin-3-yl N-{2-[2-(imidazol-1-yl)ethoxy]ethyl}carbamate; trifluoroacetic acid], for which the IC50 in experiment [1] was 10 to 20 µM; in experiment [2], less than 10 µM; in experiment [3], less than 10 µM.
With `COc1ccc(C[C@H]2NC[C@H](O)[C@H]2OC(=O)NCCN2CC(N)C2)cc1` [V187624, (2R,3S,4S)-4-hydroxy-2-[(4-methoxyphenyl)methyl]pyrrolidin-3-yl N-[2-(3-aminoazetidin-1-yl)ethyl]carbamate], the figures for the IC50 in experiment [1], in experiment [2] and in experiment [3] were greater than 30 µM, less than 10 µM and greater than 30 µM, respectively.
For `COc1ccc(C[C@H]2NC[C@H](O)[C@H]2OC(=O)NCCOCCN2C(=O)CNC2=O)cc1` [V187627], the IC50 in experiment [1] was 20 to 30 µM; in experiment [2], less than 10 µM; in experiment [3], 10 to 20 µM.
The like results for `COc1ccc(C[C@H]2NC[C@H](O)[C@H]2OC(=O)NCCN2C[C@@H](O)[C@H](NC(C)=O)C2)cc1` [V187578, (2R,3S,4S)-4-hydroxy-2-[(4-methoxyphenyl)methyl]pyrrolidin-3-yl N-{2-[(3R,4R)-3-acetamido-4-hydroxypyrrolidin-1-yl]ethyl}carbamate] were, in that order, greater than 30 µM, 20 to 30 µM and greater than 30 µM.
With `COc1ccc(C[C@H]2NC[C@H](O)[C@H]2OC(=O)Nc2n[nH]c(C)n2)cc1` [V187657, (2R,3S,4S)-4-hydroxy-2-[(4-methoxyphenyl)methyl]pyrrolidin-3-yl N-(5-methyl-1H-1,2,4-triazol-3-yl) carbamate], the IC50 is 20 to 30 µM in experiment [1], less than 10 µM in experiment [2] and 10 to 20 µM in experiment [3].
In the same order, the values of `CCN(CC)CCCNC(=O)O[C@@H]1[C@@H](O)CN[C@@H]1Cc1ccc(OC)cc1` [V187387, (2R,3S,4S)-4-hydroxy-2-[(4-methoxyphenyl)methyl]pyrrolidin-3-yl N-[3-(diethylamino)propyl]carbamate trifluoroacetic acid salt] are greater than 30 µM, less than 10 µM and 20 to 30 µM.
In the same order, the values of `COc1ccc(C[C@H]2NC[C@H](O)[C@H]2OC(=O)Nc2nnc(C)s2)cc1` [V187553, (2R,3S,4S)-4-hydroxy-2-[(4-methoxyphenyl)methyl]pyrrolidin-3-yl N-(5-methyl-1,3,4-thiadiazol-2-yl)carbamate; trifluoroacetic acid] are greater than 30 µM, greater than 30 µM and greater than 30 µM.
The like results for `COc1ccc(C[C@H]2NC[C@H](O)[C@H]2OC(=O)NCCc2cnn(Cc3ccccc3)c2)cc1` [V187439, (2R,3S,4S)-4-hydroxy-2-(4-methoxybenzyl)pyrrolidin-3-yl (2-(1-benzyl-1H-pyrazol-4-yl)ethyl) carbamate] were, in that order, 20 to 30 µM, less than 10 µM and less than 10 µM.
With `COc1ccc(C[C@H]2NC[C@H](O)[C@H]2OC(=O)NCCCOCC(C)C)cc1` [V187437, (2R,3S,4S)-4-hydroxy-2-[(4-methoxyphenyl)methyl]pyrrolidin-3-yl N-[3-(2-methylpropoxy)propyl]carbamate], the figures for the concentration for half-maximal inhibition (IC50) in experiment [1], in experiment [2] and in experiment [3] were 20 to 30 µM, less than 10 µM and 10 to 20 µM, respectively.
In the same order, the values of `COc1ccc(C[C@H]2NC[C@H](O)[C@H]2OC(=O)NCCN2CCC2)cc1` [V187566, (2R,3S,4S)-4-hydroxy-2-[(4-methoxyphenyl)methyl]pyrrolidin-3-yl N-[2-(azetidin-1-yl)ethyl]carbamate; trifluoroacetic acid] are greater than 30 µM, 10 to 20 µM and greater than 30 µM.
In the same order, the values of `COc1ccc(C[C@H]2NC[C@H](O)[C@H]2OC(=O)NCCCCCN(C)C)cc1` [V187638, (2R,3S,4S)-4-hydroxy-2-[(4-methoxyphenyl)methyl]pyrrolidin-3-yl N-[5-(dimethylamino)pentyl]carbamate] are 10 to 20 µM, less than 10 µM and 10 to 20 µM.
In the same order, the values of `COc1ccc(C[C@H]2NC[C@H](O)[C@H]2OC(=O)NC2CC(F)(F)C2)cc1` [V187191, (2R,3S,4S)-4-hydroxy-2-[(4-methoxyphenyl)methyl]pyrrolidin-3-yl N-(3,3-difluorocyclobutyl)carbamate; trifluoroacetic acid] are greater than 30 µM, less than 10 µM and 20 to 30 µM.
For the molecule `COc1ccc(C[C@H]2NC[C@H](O)[C@H]2OC(=O)NCC[C@H]2CN(CC3CCCO3)CCN2Cc2ccccc2)cc1` (stereo partly drawn) [V187345, (2R,3S,4S)-4-hydroxy-2-[(4-methoxyphenyl)methyl]pyrrolidin-3-yl N-{2-[(2S)-1-benzyl-4-(oxolan-2-ylmethyl)piperazin-2-yl]ethyl}carbamate], the IC50 in experiment [1], in experiment [2] and in experiment [3] was greater than 30 µM throughout.

The values are drawn from patent publication US20250129021A1, “SMALL MOLECULE PROTEIN SYNTHESIS MODULATORS” (Interdict Bio, Inc., priority 2023, published 2025).
